# Type: physicochemical
# Settings: for Weight %: solubility in THF, 25° C., calculated with extinction coefficient of pentacene
# Procedure: The solubility of several alkyl substituted pentacenes in tetrahydrofuran (THF) was compared with that of pentacene. Samples were prepared by adding excess alkyl substituted pentacene compounder pentacene compound to newly opened THF and sonicating for 20-30 seconds to facilitate dissolution. All handling of the solutions and solvent was done in a nitrogen-purged environment. Solutions were transferred to a 1 cm cuvette with a disposable pipette. The cuvette was then placed in a spectrophotometer for 5 minutes for temperature equilibration (25° C.). Absorbance measurements were made using an Hewlett Packard 8453 photodiode array spectrophotometer over a range of wavelengths from 200 to 1100 nm. THF was used as a reference blank. All of the spectrographs were corrected for baseline differences, which possibly resulted from excess compound in suspension. In calculating the concentration and weight % values, the extinction coefficient of pentacene that is, 10^3.76 at 577 nm was used for all substituted pentacenes.
Concentration [µM],Weight %,"Solubility in THF compared with pentacene, 2,9-dimethylpentacene, 2,10-dimethylpentacene, 2,9-didodecylpentacene",Compound,Absorbance at 577 nm,Relative Absorbance
10.7,7.38 × 10^−4 Weight %,–,"CCCCCCCCCCCCc1ccc2cc3cc4cc5cc(CCCCCCCCCCCC)ccc5cc4cc3cc2c1 [2,9-didodecylpentacene, 2,9-Didodecylpentacene]",0.061,0.420
3350,2.00 × 10^−1 Weight %,significantly more soluble,"CC(CCc1ccc2cc3cc4cc5cc(CCC(C)CC(C)(C)C)ccc5cc4cc3cc2c1)CC(C)(C)C (centres unmarked) [2,9-di(3,5,5-trimethylhexyl)pentacene, 2,9-Di(3,5,5-trimethylhexyl)pentacene]",–,–
243,1.45 × 10^−2 Weight %,significantly more soluble,"CCCCCCCCCc1ccc2cc3cc4cc5cc(CCCCCCCCC)ccc5cc4cc3cc2c1 [2,9-dinonylpentacene, 2,9-Dinonylpentacene]",1.398,9.562
172,8.62 × 10^−3 Weight %,significantly more soluble,"CCCCCCc1ccc2cc3cc4cc5cc(CCCCCC)ccc5cc4cc3cc2c1 [2,9-dihexylpentacene, 2,9-Dihexylpentacene]",0.987,6.752

Compound,Concentration [µM],Weight %,"Solubility in THF compared with pentacene, 2,9-dimethylpentacene, 2,10-dimethylpentacene, 2,9-didodecylpentacene",Absorbance at 577 nm,Relative Absorbance
c1ccc2cc3cc4cc5ccccc5cc4cc3cc2c1 [pentacene],25.4,7.95 × 10^−4 Weight %,–,0.146,1.000
"Cc1ccc2cc3cc4cc5cc(C)ccc5cc4cc3cc2c1 [2,9-dimethylpentacene, 2,9-Dimethylpentacene]",3.59,1.64 × 10^−4 Weight %,–,0.021,0.142
"Cc1ccc2cc3cc4cc5ccc(C)cc5cc4cc3cc2c1 [2,10-dimethylpentacene, 2,10-Dimethylpentacene]",6.06,2.77 × 10^−4 Weight %,–,0.035,0.239

# From US6864396B2, “Substituted pentacene semiconductors” (3M Innovative Properties Company, priority 2001, dated 2005)
